Data set [1] relates to rRNA. The experiment in a line: PNA FISH with rRNA-directed probes on S. aureus cells (Examples 2-3). Format: cell-based. The source says:
Some (but not all) of the visible colonies in the slides are surrounded by a circle (slide A) or a square (Slide B). This should assist in analysis of the slides where black and white copies of the Figures are provided in lieu of color copies. In Image A-1 and A-2, the same colonies are encircled to simplify the comparison. The conditions for each of the slides examined in FIG. 2, are as follows: • A-1) MRSA 43300, Dual band filter • B-1) MSSA 29213, Dual band filter • A-2) MRSA 43300, FITC filter • B-2) MSSA 29213, FITC filter

Data set [2] concerns rRNA. The data set is described as follows: PNA FISH with rRNA-directed probes on S. epidermidis cells (Example 3). Particulars: MRSE 51625 in mixture with MRSA 43300.
Protocol: In this example a mixture of MRSA 43300 and MRSE 51625 was prepared and examined using three fluorescent filters as described below. The growth and oxacillin induction of S. aureus cells was performed as described in Example 1. […] S. epidermidis was grown essentially as described for S. aureus in Example 1. Cell fixation and permeabilization of both MRSA 43300 and MRSE 51625 was performed as described in Example 1.
The remainder of the procedure was performed as described in Example 1. These images are of the same section of the slide. In each case, only the fluorescence filter was changed.
Another data set concerns MecA mRNA. The data set is described as follows: PNA FISH of MecA mRNA in permeabilized S. aureus (Examples 1-3). Format: cell-based. Particulars: MRSA 43300, oxacillin-induced; FIG. 1 Slides B-D; Probes 1-5 794 nM combined, Probe 2 750 nM, Probe 6 750 nM.
A further data set relates to MecA. The data set is described as follows: PNA FISH with tyramide signal amplification (Example 4). Format: cell-based, S. aureus. Particulars: MRSA 33591, oxacillin-induced; 500 nM total; streptavidin-HRP, AlexaFluor 594-labeled tyramide; FIG. 4. On the procedure: Cell fixation and permeabilization was also performed as described in Example 1 except that prior to hybridization the slides were treated at 80° C. for 5 minutes with 75 μL of TE buffer (Tris-HCl 100 mM, EDTA, 10 mM, pH 8.0). For hybridization, 25 μL of HB** containing five biotin-labeled PNA probes (Probes 11, 12, 13, 14 and 15 (concentration of each probe was 100 nM for a total concentration of 500 nM) was applied on one slide. Another slide was probed with one biotin-labeled, C. albicans—specific rRNA-directed probe (probe 10, concentration 500 nM) in control experiment. Hybridization and washing were performed as described in Example 1. Slides were then processed with reagents commercially available from Molecular Probes (TSA Kit #25, Eugene, Oreg.) according to manufacturer's protocol. Specifically, slide-deposited cells were first incubated 30 min with 0.075 mL of Blocking Buffer (BB) then 30 min with 0.1 mL of streptavidin-HRP diluted in BB. After washing (3×5 min wash) with PBS-Tween, the cells were incubated 10 min with 0.075 mL of AlexaFluor 594-labeled tyramide solution and washed (3×5 min wash) again. A drop of MM and cover slip was then applied on air dried slides and the cells were examined by FM. […]

Results on four substances are retold here after patent publication US20160257997A1, “METHODS FOR WHOLE-CELL ANALYSIS OF GRAM-POSITIVE BACTERIA” (AdvanDx, Inc., priority 2009, published 2016).

{Biotin} = biotin label at the PNA N-terminus, attached through the O linker (8-amino-3,6-dioxaoctanoic acid); {PacBlue} = Pacific Blue dye label at the PNA N-terminus, attached through the O linker; {TAMRA} = TAMRA (TAM) fluorescent label at the PNA N-terminus

For the substance “TAM-GCTTCTCGTCCGTTC (all peptide nucleic acid (PNA), 5' {TAMRA}; peptide nucleic acid FISH probe; listed as Staphylococcus aureus) [Probe 8]”, the “fluorescent staining of bacteria (dual band filter)” value in the data set with rRNA [1] (MRSA 43300 and MSSA 29213, 500 nM, FIG. 2 Slides A-1 and B-1) is “Red fluorescent stained bacteria”; in the data set with rRNA [1] (MRSA 43300 in mixture with MRSE 51625, FIG. 3 Image A) it was “red fluorescence”; in the data set on rRNA [2] (FIG. 3 Image A) it was “no TAMRA signal”.
“TCAATGAGCAAAGGT (all peptide nucleic acid (PNA); fluorescein label, position not given here; listed as Escherichia coli) [Probe 6, Flu-labeled E. coli specific rRNA-directed PNA probe, control]”: in the data set on MecA mRNA, the “fluorescent staining of bacteria (FITC filter)” value is reported as “No signal was observed”.
Regarding “AGAGAGCAGCATCCA (all peptide nucleic acid (PNA), 5' {Biotin}; peptide nucleic acid FISH probe, chemically synthesized) [Probe 10, Biotin-labeled C. albicans-specific rRNA-directed PNA probe, control]”, the “fluorescent staining of bacteria after tyramide signal amplification” value with MecA is recorded as “absence of visible bacteria”.
As for “TCCTCGTCTGTTCGC (all peptide nucleic acid (PNA), 5' {PacBlue}; peptide nucleic acid FISH probe, chemically synthesized; listed as Staphylococcus epidermidis) [Probe 9]”, the “fluorescent staining of bacteria (DAPI filter)” value with rRNA [2] (500 nM, FIG. 3 Image B) is given as “Blue stained MRSE bacteria are visible”.
